# Assay results published in article PMC3596113 (Clinical cancer research : an official journal of the …, 2012).
# Where two headings read alike, the source gives them in different places. Marks after values point to notes of the source that are not given here.
# How the values were obtained:
# [1] = test system: Chk2; conditions: cited from earlier work
# [2] = test system: relapsed and refractory acute leukemias
# [3] = test system: CDK1; conditions: cited from earlier work
# [4] = test system: phosphorylation of histone H2Ax in leukemia blast cells; assay: H2Ax phosphorylation in marrow blasts; format: in vivo, human
# [5] = AML patient 49, dose level 1, Ref
# [6] = AML patient 73, dose level 5, Relapse 66 mo
# [7] = Total, 24 adults, all dose levels
# [8] = dose level 1, 10 mg/m^2 (n = 3) + cytarabine
# [9] = dose level 2, 20 mg/m^2 (n = 3) + cytarabine
# [10] = dose level 4, 56 mg/m^2 (n = 6) + cytarabine
# [11] = dose level 5, 140 mg (n = 6) + cytarabine
smiles,measurement,setting,value
Cn1cc(-c2cnn3c(N)c(Br)c([C@@H]4CCCNC4)nc23)cn1 [SCH 900776],Effect on Chk2,[1],without substantial effect
same,Response rate (CR plus CRi),[2]; 1 CRi of 6 patients at SCH 900776 doses ≤ 20 mg/m^2,17%
same,CR/CRi rate,[2]; 2 of 10 patients with AML with adverse cytogenetics,20%
same,CR/CRi rate,[2]; 2 of 10 patients with a complex karyotype,20%
same,CR/CRi rate,[2]; 3 of 8 with secondary AML,38%
same,CR/CRi rate,[2]; 4/8 with relapsed AML,50%
same,Response rate (CR plus CRi),"[2]; 7 (5 CR, 2 CRi) of 18 patients at dose level 3 (40 mg/m^2) or higher",39%
same,CR/CRi rate in patients with AML,[2]; 8 of 21 patients with AML,38%
same,Overall response rate (CR plus CRi),"[2]; 8 of 24 patients, all dose levels",33%
same,"Complete tumor clearance (CTC) by day 14, rate","[2]; 12 of 24 patients, all dose levels",50%
same,DFS (mo),"[2]; AML patient 25, dose level 3, Relapse 7 mo",25.2+ mo
same,DFS (mo),[2]; [5],2.0 mo
same,Response (CR/CRi),[2]; [5],CRi
same,DFS (mo),"[2]; AML patient 52, dose level 3, primary Ref",2.2 mo
same,DFS (mo),"[2]; AML patient 55, dose level 3, primary Ref",11.3 mo
same,DFS (mo),"[2]; AML patient 60, dose level 4, Relapse 8 mo",22.4+ mo
same,DFS (mo),"[2]; AML patient 61, dose level 5, Relapse 19 mo",18.1+ mo
same,DFS (mo),"[2]; AML patient 70, dose level 4, primary Ref",9.7 mo
same,DFS (mo),[2]; [6],0.2 mo
same,Response (CR/CRi),[2]; [6],CRi
same,Day 14 CTC (patients),[2]; [7],12
same,Response (CR/CRi) (patients),[2]; [7],8 (5/3): all AML
same,Response in pts with prior cytarabine,"[2]; Total, 24 adults, high = prior 2 g/m^2/72 h infusion or high-dose cytarabine",7 (6 high)
same,Median duration of response,"[2]; all patients with CR/CRi, range 0.2–27+",10 months
same,Responders remaining alive,"[2]; as of June 1, 2012, at 19+ to 30.5+ months",5 of the 8
same,Response rate (CR plus CRi),[2]; at least 2 of 6 in each of dose levels 3 through 5,≥ 33%
same,"Complete tumor clearance (CTC) by day 14, rate",[2]; at least 3 of 6 per level beginning at dose level 3 (40 mg/m^2),≥ 50%
same,Day 14 CTC (patients),[2]; [8],1
same,Response (CR/CRi) (patients),[2]; [8],1 (0/1): AML
same,Response in pts with prior cytarabine,"[2]; dose level 1, 10 mg/m^2 (n = 3), high = prior 2 g/m^2/72 h infusion or high-dose cytarabine",1 (high) ^a
same,Response in pts with prior cytarabine,"[2]; dose level 2, 20 mg/m^2 (n = 3)",0
same,Day 14 CTC (patients),[2]; [9],1
same,Response (CR/CRi) (patients),[2]; [9],0 (0/0)
same,Day 14 CTC (patients),"[2]; dose level 3, 40 mg/m^2 (n = 6) + cytarabine",4
same,Response in pts with prior cytarabine,"[2]; dose level 3, 40 mg/m^2 (n = 6), high = prior 2 g/m^2/72 h infusion or high-dose cytarabine",2 (both high)
same,Day 14 CTC (patients),[2]; [10],3
same,Response (CR/CRi) (patients),[2]; [10],2 (2/0): both AML
same,Response in pts with prior cytarabine,"[2]; dose level 4, 56 mg/m^2 (n = 6), high = prior 2 g/m^2/72 h infusion or high-dose cytarabine",2 (1 high)
same,Day 14 CTC (patients),[2]; [11],3
same,Response (CR/CRi) (patients),[2]; [11],2 (1/1): both AML
same,Response in pts with prior cytarabine,"[2]; dose level 5, 140 mg (n = 6), high = prior 2 g/m^2/72 h infusion or high-dose cytarabine",2 (both high)
same,CR/CRi in patients who had day 14 CTC,"[2]; human, in vivo",8 of the 12
same,CR/CRi in patients who had residual leukemia on day 14,"[2]; human, in vivo",none
same,CR/CRi,[2]; patients with FLT3-ITD AML,none
same,Effect on CDK1,[3],without substantial effect
same,Sets of samples with enhanced H2Ax phosphorylation,[4]; patients treated with 40 mg/m^2 SCH 900776 or higher,3 of 5
"Nc1ccn([C@@H]2O[C@H](CO)[C@@H](O)[C@@H]2O)c(=O)n1 [cytarabine, reference compound]",Samples with increase in H2Ax phosphorylation,"[4]; marrow blasts, after 24 hours of continuous cytarabine infusion, before SCH 900776 (day 2)",2 of 10
